# From ChEMBL document CHEMBL1124211, “Synthesis and in vitro activity of various derivatives of a novel thromboxane receptor antagonist, (+/-)-(5Z)-7-[3-endo-[(phenylsulfonyl)amino]bicyclo[2.2.1] hept-2-exo-yl]heptenoic acid” (J Med Chem, 1988)
# How the values were obtained:
# Homo sapiens [1] = species: Homo sapiens; test: The synthesis of cyclooxygenase or lipoxygenase derived products (HHT and HETE) in human washed platelets at dose of 20 uM; assay type: functional, organism-based
# Homo sapiens [2] = species: Homo sapiens; test: Effect on the synthesis of Thromboxane A2 at dose of 20 uM; assay type: functional, organism-based
# Homo sapiens [3] = species: Homo sapiens; test: Effect on the synthesis of metabolites of arachidonic acid in human platelets; assay type: functional
# Rattus norvegicus [4] = species: Rattus norvegicus; test: Inhibitory activity against rat thoracic aorta contraction induced by 30 nM U-46619; assay type: functional
# Oryctolagus cuniculus = species: Oryctolagus cuniculus; test: Inhibition of rabbit platelet rich plasma aggregation induced by 500 uM of arachidonic acid; assay type: functional
# Rattus norvegicus [5] = species: Rattus norvegicus; test: Inhibition of rat washed platelet aggregation induced by 4 ug/mL of collagen; assay type: functional
# [6] = biological target: T1, Thromboxane-A synthase (Homo sapiens) (UniProt P24557); test: Inhibition of thromboxane A2 synthetase from human platelets by 10 uM expressed as percent of radioactivity recovered
# T1 sequence (whole entry): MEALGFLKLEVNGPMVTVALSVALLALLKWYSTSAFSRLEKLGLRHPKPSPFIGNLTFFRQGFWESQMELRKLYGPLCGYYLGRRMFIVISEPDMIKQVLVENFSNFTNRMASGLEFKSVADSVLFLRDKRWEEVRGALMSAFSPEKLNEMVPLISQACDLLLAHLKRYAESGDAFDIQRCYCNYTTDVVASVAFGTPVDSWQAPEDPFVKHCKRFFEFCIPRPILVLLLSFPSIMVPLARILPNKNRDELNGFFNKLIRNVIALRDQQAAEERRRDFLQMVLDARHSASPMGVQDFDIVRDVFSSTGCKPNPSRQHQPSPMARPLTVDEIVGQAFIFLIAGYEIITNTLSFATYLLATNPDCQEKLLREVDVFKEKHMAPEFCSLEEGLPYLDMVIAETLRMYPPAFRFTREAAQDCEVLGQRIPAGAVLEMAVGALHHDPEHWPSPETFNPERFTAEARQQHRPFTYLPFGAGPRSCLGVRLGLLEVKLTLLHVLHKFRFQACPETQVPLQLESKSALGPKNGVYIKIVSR
# Homo sapiens [7] = species: Homo sapiens; test: Effect on cyclooxygenase or lipoxygenase derived products(HHT and HETE) in human washed platelets at dose of 1 uM expressed as percent of radioactivity recovered; assay type: functional
# Homo sapiens [8] = species: Homo sapiens; test: Effect on cyclooxygenase or lipoxygenase derived products (HHT and HETE) in human washed platelets at a dose of 10 uM as percent of radioactivity recovered; assay type: functional
# Homo sapiens [9] = species: Homo sapiens; test: Effect on the synthesis of metabolites of arachidonic acid in human platelets at a dose of 1 uM; assay type: functional
# Homo sapiens [10] = species: Homo sapiens; test: Effect on the synthesis of metabolites of arachidonic acid in human platelets at dose of 10 uM expressed as percent of radioactivity recovered; assay type: functional
# Homo sapiens [11] = species: Homo sapiens; test: The synthesis of cyclooxygenase or lipoxygenase derived products (HHT and HETE) in human washed platelets; assay type: functional
# Homo sapiens [12] = species: Homo sapiens; test: Effect on the synthesis of Thromboxane A2; assay type: functional, organism-based
# [13] = Rattus norvegicus, Thoracic aorta
Structure (SMILES),IC50 (Rattus norvegicus [4]; [13]) [nM],"IC50 (Oryctolagus cuniculus; Oryctolagus cuniculus, Plasma) [nM]",IC50 (Rattus norvegicus [5]; Rattus norvegicus) [nM],other results
COc1ccc2c(c1)c(CC(=O)O)c(C)n2C(=O)c1ccc(Cl)cc1,,,,Recovery (Homo sapiens [1]): 15%; Recovery (Homo sapiens [2]): 0.34%; Recovery (Homo sapiens [3]): 28.4%
CS(=O)(=O)N[C@H]1C2CC[C@H](C2)[C@@H]1C/C=C\CCCC(=O)O,1580,640000,370,
O=C(O)CCC/C=C\C[C@@H]1[C@H](CNNC(=O)Nc2ccccc2)[C@H]2CC[C@H]1O2,14.5,9000,3,
"O=C(O)CCC/C=C\C[C@H]1[C@@H]2CCC(C2)[C@@H]1NS(=O)(=O)c1ccccc1 (single isomer, unassigned; (-))",,,,IC50 (Rattus norvegicus [4]): 15.3 nM; IC50 (Oryctolagus cuniculus): 7400 nM; IC50 (Rattus norvegicus [5]): 13.4 nM
O=C(O)CCC/C=C\C[C@H]1[C@@H]2CCC(C2)[C@@H]1NS(=O)(=O)c1ccccc1 (stereo in doubt; 14a) [listing 1 of 2 here],,,,Recovery [6]: 2.1%; Recovery (Homo sapiens [7]): 24%; Recovery (Homo sapiens [8]): 23.2%; Recovery (Homo sapiens [9]): 14.3%; Recovery (Homo sapiens [10]): 14.2%
O=C(O)CCC/C=C\C[C@H]1[C@@H]2CCC(C2)[C@@H]1NS(=O)(=O)c1ccc(-c2ccccc2)cc1,9.8,200000,6,
Cc1ccc(S(=O)(=O)N[C@H]2C3CC[C@H](C3)[C@@H]2C/C=C\CCCC(=O)O)cc1,0.7,500,2.4,
CCc1ccc(S(=O)(=O)N[C@H]2C3CC[C@H](C3)[C@@H]2C/C=C\CCCC(=O)O)cc1,1.5,4600,3.3,
CCCCCc1ccc(S(=O)(=O)N[C@H]2C3CC[C@H](C3)[C@@H]2C/C=C\CCCC(=O)O)cc1,,800000,14.5,
CCCCCCS(=O)(=O)N[C@H]1C2CC[C@H](C2)[C@@H]1C/C=C\CCCC(=O)O,17.2,13300,19,
O=C(O)CCC/C=C\C[C@H]1[C@@H]2CCC(C2)[C@@H]1NS(=O)(=O)c1ccc(Cl)cc1,,300,2.9,
"O=C(O)CCC/C=C\C[C@H]1[C@@H]2CCC(C2)[C@@H]1NS(=O)(=O)c1ccccc1 (single isomer, unassigned; (+))",,,,IC50 (Rattus norvegicus [4]): 0.49 nM; IC50 (Oryctolagus cuniculus): 600 nM; IC50 (Rattus norvegicus [5]): 1.8 nM
O=C(O)c1ccc(OCCn2ccnc2)cc1,,,,Recovery (Homo sapiens [3]): 11.8%; Recovery (Homo sapiens [11]): 19.3%; Recovery (Homo sapiens [12]): 0.74%
CN(C)c1ccc(S(=O)(=O)N[C@H]2C3CC[C@H](C3)[C@@H]2C/C=C\CCCC(=O)O)cc1,,7100,52,
O=C(O)CCC/C=C\C[C@H]1[C@@H]2CCC(C2)[C@@H]1NS(=O)(=O)c1ccc([N+](=O)[O-])cc1,,1400,8.9,
COc1ccc(S(=O)(=O)N[C@H]2C3CC[C@H](C3)[C@@H]2C/C=C\CCCC(=O)O)cc1,,1700,3.9,
O=C(O)CCC/C=C\C[C@H]1[C@@H]2CCC(C2)[C@@H]1NS(=O)(=O)c1ccccc1 (stereo in doubt; 14a) [listing 2 of 2 here],,,,IC50 (Rattus norvegicus [4]): 1.4 nM; IC50 (Rattus norvegicus [5]): 2.9 nM
O=C(O)CCC/C=C\C[C@H]1[C@@H]2CCC(C2)[C@@H]1NS(=O)(=O)c1ccc(F)cc1,,600,2.9,

# More lines, main results first:
IC50 (Rattus norvegicus [4]; [13]) [nM],"IC50 (Oryctolagus cuniculus; Oryctolagus cuniculus, Plasma) [nM]",IC50 (Rattus norvegicus [5]; Rattus norvegicus) [nM],Structure (SMILES),other results
3.2,1700,5.6,Cc1cccc(S(=O)(=O)N[C@H]2C3CC[C@H](C3)[C@@H]2C/C=C\CCCC(=O)O)c1,
2.7,1100,2.7,O=C(O)CCC/C=C\C[C@H]1[C@@H]2CCC(C2)[C@@H]1NS(=O)(=O)c1cccc2ccccc12,
3.4,8200,3.7,O=C(O)CCC/C=C\C[C@H]1[C@@H]2CCC(C2)[C@@H]1NS(=O)(=O)CCc1ccccc1,
3.7,6200,4.3,Cc1ccccc1S(=O)(=O)N[C@H]1C2CC[C@H](C2)[C@@H]1C/C=C\CCCC(=O)O,
,800000,> 1000,O=C(O)CCC/C=C\C[C@H]1[C@@H]2CCC(C2)[C@@H]1NS(=O)(=O)c1ccc(C(=O)O)cc1,
10.9,14000,10.9,O=C(O)CCC/C=C\C[C@H]1[C@@H]2CCC(C2)[C@@H]1NS(=O)(=O)CCCc1ccccc1,
,500,4,O=C(O)CCC/C=C\C[C@H]1[C@@H]2CCC(C2)[C@@H]1NS(=O)(=O)c1ccc(O)cc1,
3410,> 800000,450,O=C(O)CCC/C=C\C[C@H]1[C@@H]2CCC(C2)[C@@H]1NC(=O)c1ccccc1,
111,113000,26,O=C(O)CCC/C=C\C[C@H]1[C@@H]2CCC(C2)[C@@H]1NS(=O)(=O)Cc1ccccc1,
